# Measured values reported in ChEMBL document CHEMBL1201862, “PubChem BioAssay data set” (2004).
#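 Assay format: 96-well plates, 48-hour exposure. GI50 marks 50% less growth.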 The source made the active and inactive calls. No stated cut-off is given here; in the data, active = GI50 up to about 1.1 µM and inactive = higher.
# Assays:
# Assay in all cases: growth of human tumour cells (NCI), 48 h
# [1] = tested on: NCI-H23
# [2] = tested on: M14
# [3] = tested on: KM12
# [4] = tested on: UACC-62
# [5] = tested on: SN12C
# [6] = tested on: NCI/ADR-RES
# [7] = tested on: K562
# [8] = tested on: A549
# [9] = tested on: MOLT-4
# [10] = tested on: HCT-15
# [11] = tested on: Malme-3M
# [12] = tested on: LOX IMVI
# [13] = tested on: DU-145
# [14] = tested on: MDA-MB-231
# [15] = tested on: MCF7
# [16] = tested on: A498
# [17] = tested on: SR
# [18] = tested on: NCI-H522
# [19] = tested on: T47D
# [20] = tested on: HOP-92
Compound,GI50 [1],GI50 [2],GI50 [3],GI50 [4],GI50 [5],GI50 [6],GI50 [7],GI50 [8],GI50 [9],GI50 [10],GI50 [11],GI50 [12],GI50 [13],GI50 [14],GI50 [15],GI50 [16],GI50 [17],GI50 [18],GI50 [19],GI50 [20]
COc1cc(OC)c2c(C)cc(=O)oc2c1,64.4 µM (inactive),> 100 µM (inactive),54.2 µM (inactive),96.4 µM (inactive),72.6 µM (inactive),63.8 µM (inactive),45 µM (inactive),55.7 µM (inactive),82.6 µM (inactive),56.5 µM,53 µM (inactive),47.1 µM (inactive),52.7 µM (inactive),70.3 µM (inactive),85.9 µM (inactive),20.6 µM (inactive),45.1 µM (inactive),–,–,–
Cc1ccc(S(=O)(=O)N/N=C2/C3C(CC2(C)C)C2(C)CCCC3(C)C2O)cc1 (configuration not stated),22.8 µM (inactive),22.9 µM (inactive),18.3 µM (inactive),14.8 µM (inactive),19.9 µM (inactive),21.2 µM (inactive),23.9 µM (inactive),20 µM (inactive),12.9 µM (inactive),23.2 µM,24 µM (inactive),13.4 µM (inactive),39.1 µM (inactive),–,17.5 µM (inactive),–,20.7 µM (inactive),19.6 µM (inactive),18.2 µM (inactive),17.2 µM (inactive)
O=c1c2c(oc3ccccc13)-c1ccccc1OC2,59.7 µM (inactive),> 100 µM (inactive),> 100 µM (inactive),> 100 µM (inactive),53.3 µM (inactive),29.3 µM (inactive),> 100 µM (inactive),96.6 µM (inactive),> 100 µM (inactive),> 100 µM,> 100 µM (inactive),46 µM (inactive),53.3 µM (inactive),21.1 µM (inactive),> 100 µM (inactive),–,–,> 100 µM (inactive),16.3 µM (inactive),–
CCCCCCCCOCC1S(=O)(=O)OCCOS1(=O)=O,> 100 µM (inactive),> 100 µM (inactive),–,> 100 µM (inactive),> 100 µM (inactive),> 100 µM (inactive),> 100 µM (inactive),> 100 µM (inactive),> 100 µM (inactive),> 100 µM,> 100 µM (inactive),> 100 µM (inactive),> 100 µM (inactive),> 100 µM (inactive),–,> 100 µM (inactive),40.4 µM (inactive),> 100 µM (inactive),> 100 µM (inactive),> 100 µM (inactive)
O=[N+]([O-])C(/C(Cl)=C(/Cl)N1CCOCC1)=C1\NCCO1,> 100 µM (inactive),> 100 µM (inactive),> 100 µM (inactive),> 100 µM (inactive),> 100 µM (inactive),> 100 µM (inactive),–,> 100 µM (inactive),> 100 µM (inactive),> 100 µM,> 100 µM (inactive),–,> 100 µM (inactive),> 100 µM (inactive),> 100 µM (inactive),> 100 µM (inactive),–,–,> 100 µM (inactive),–
Cc1nn(C(=O)Cc2ccccc2)c2c1C(c1ccc(O)cc1O)SC(=N)N2 (configuration not stated),> 100 µM (inactive),> 100 µM (inactive),> 100 µM (inactive),> 100 µM (inactive),> 100 µM (inactive),–,–,> 100 µM (inactive),> 100 µM (inactive),> 100 µM,> 100 µM (inactive),> 100 µM (inactive),> 100 µM (inactive),> 100 µM (inactive),> 100 µM (inactive),> 100 µM (inactive),> 100 µM (inactive),> 100 µM (inactive),> 100 µM (inactive),–
